Assay results as given in US20260008784A1 (VASTHERA CO., LTD., priority 2022, published 2026).
Where two headings read alike, the source gives them in different places.

Assays:
NIH-3T3 cells = test: Intracellular H2O2-eliminating activity (CM-H2DCF-DA fluorescence); type: cell-based; conditions: Mus musculus, NIH3T3, glucose oxidase, concentration at 50% reduction of intracellular H2O2
Experimental: The activity of test compounds in present invention to eliminate intracellular H2O2 was measured as follows. NIH-3T3 cells (ATCC) were seeded in a 35-mm culture dish at 2×10^5 cells/well. After culture for 24 hours, cells were serum-starved with phenol red free-basal DMEM containing 0.5% FBS for 6 h. Starved NIH 3T3 cells were pretreated with compounds diluted with phenol red free-basal DMEM at concentrations ([…]) for 30 min, followed by treatment with 20 mU of glucose oxidase (Gox) for 30 min. A reactive oxygen species-sensitive fluorescence dye, carboxymethyl-dichlorofluorescein-diacetate (CM-H2DCF-DA), which was prepared in 1 mM DMSO stock and diluted 500 times in phenol red free-basal DMEM, was added to the cells and incubated for 5 min. Then, cells were quickly rinsed with basal medium. Images were taken at excitation 497 nm/emission 518 nm settings using a fluorescence microscope. Three images at 10× magnification per sample were obtained, and fluorescence intensities from 30 or more individual cells per image were averaged.
The intracellular H2O2-eliminating activity of test compounds in present invention was measured using a live-cell imaging fluorescence probe (CM-HaDCF-DA). H2O2-eliminating activity was measured depending on ascending concentrations of the test compound and expressed as the percent of activity compared to the untreated control group. EC50 represents the concentration of test compound at 50% reduction of intracellular H2O2.

in vitro [1] = test: in vitro
Experimental: Cytotoxicity tests were performed against vascular endothelial cells, vascular smooth muscle cells and hepatocytes. After treatment with ascending concentrations of each compound, the concentration of test compound corresponding to 50% cell viability (CC50) was measured.

[2] = tested on: yeast thioredoxin (Trx)/yeast Trx reductase (TR); test: Peroxidase activity assay (H2O2 reduction, NADPH oxidation); type: biochemical; conditions: 50 μM test compound, 3 μM yeast Trx, 1.5 μM yeast TR, 250 μM NADPH, 1.2 mM H2O2, 30° C.; NADPH oxidized per minute
Experimental: Hydrogen peroxide (H2O2)-reducing peroxidase activity of compounds in present invention was performed as follows. Peroxyredoxin activity was measured in reaction mixture (200 μL volume) containing 50 mM HEPES buffer (pH 7.0), 1 mM EDTA, 250 μM NADPH, 3 μM yeast thioredoxin (Trx), 1.5 μM yeast Trx reductase (TR), 50 μM test compound, and 1.2 mM H2O2.
Reaction was initiated by adding H2O2 and the decrease in absorbance at 340 nm was measured using Agilent UV8453 spectrophotometry (Hewlett Packard, USA) at 30° C. for 12 min. Initial reaction rate is the amount of NADPH oxidized per minute calculated from slope of the linear part of curve.
The H2O2-reducing peroxidase activity of the test compounds in present invention was measured in a reaction mixture containing thioredoxin (Trx)/thioredoxin reductase (TR), respectively.

[3] = Measurement of redox potential (DTT redox buffers, HPLC); type: physicochemical; conditions: DTT(Red)/DTT(Ox) redox buffers, 3 h, 30° C., 50% reduction of test compound
Experimental: A test compound (10 mM) was diluted 20-fold with each redox buffer solution and incubated for 3 h in a 30° C. water bath. Then, compounds were analyzed by HPLC. The area of peaks corresponding to the oxidized and reduced forms of test compound based on specific retention time was calculated and plotted as percent of total peak area against the Nernst equation value (mV) at x-axis. The Nernst equation value corresponding to 50% reduction of test compound was set as the midpoint redox potential value for test compound.
The redox potential values of the test compounds were analyzed based on the potential values established in redox buffer solutions where reduced and oxidized DTT are mixed at various ratios.

[4] = tested on: Tyr 1175 phosphorylation of VEGF receptor-2 (VEGFR2) in HAEC; test: Immunoblot of VEGF-mediated signaling in PrxII knock-down HAEC; type: cell-based, human; conditions: HAECs depleted of PrxII expression, FIG. 5
Experimental: (§1) Cells were quickly washed in ice-cold phosphate-buffered saline (PBS) and lysed in extraction buffer containing 20 mM Hepes (pH 7.0), 1% Triton X-100, 150 mM NaCl, 10% glycerol, 1 mM EDTA, 2 mM EGTA, and 1 mM DTT, 5 mM Na3VO4, 5 mM NaF, 1 mM AEBSF, aprotinin (5 μg/mL), and leupeptin (5 μg/mL). After cen-trifugation at 12,000×g, the clarified cell extracts were used for immunoblotting. For re-blotting, the immunoblots were retrieved in a solution of 67 mM Tris (pH 6.7), 2% SDS, and 100 mM 2-mercaptoethanol at 60° C. for 30 min to remove antibodies and rinsed three times with a Tris-buffered saline (TBS) solution containing 1% Triton X-100. The retrieved membranes were subjected to new immunoblotting.
In human aortic endothelial cell (HAEC) and human pulmonary artery endothelial cell (PAEC) in which PrxII was knocked out by transfecting the PrxII siRNA, the ability of test compounds to replace the cellular function of PrxII was evaluated. That is, the efficacy of the new compounds was verified in terms of signaling pathways induced by VEGF that regulates the growth and migration of vascular endothelial cells in the aorta and pulmonary artery. Activation of VEGF-induced signaling pathway was analyzed by an immunoblot method using an antibody that specifically recognizes phosphorylation of Tyr 1175, which is a major phosphorylation site on VEGF receptor-2 (VEGFR2).

[5] = tested on: Tyr 857 phosphorylation of PDGF receptor-β (PDGFRβ) in HASMC; test: Immunoblot of PDGF-mediated signaling in PrxII knock-down HASMC; type: cell-based, human; conditions: HASMC depleted of PrxII expression, FIG. 2
Experimental: as §1
In human aortic smooth muscle cell (HASMC) and human pulmonary artery smooth muscle cell (PASMC) in which PrxII was knocked out by transfecting the PrxII siRNA, the ability of test compounds to replace the cellular function of PrxII was evaluated. That is, the efficacy of the new compounds was verified in terms of signaling pathways induced by PDGF that regulates the growth and migration of vascular smooth muscle cells in the aorta and pulmonary artery. Activation of PDGF-induced signaling pathway was analyzed by an immunoblot method using an antibody that specifically recognizes phosphorylation of Tyr 857, which is a major phosphorylation site on PDGF receptor (PDGFRβ).

in vitro [6] = conditions: human
Experimental: For cytotoxicity analysis, human aortic endothelial cells (HAEC) and smooth muscle cells (HASMC) were seeded in a 96-well culture plate at density of 4000 cells/well in a final volume of 100 μL. Cells were cultured for 24 h and serum-starved for an additional 18 h. Test compounds were serially diluted with EBM-2 culture medium, added to the plate at 100 μL/well, and further incubated for 24 h. The number of viable cells was measured using the WST-1 cell viability assay kit (Roche Diagnostics, USA). Cell number was expressed as absorbance values at 450 nm after subtracting the turbidity value at 600 nm. The absorbance values from three replicate wells were averaged.
After treatment with ascending concentrations of each compound, the concentration of test compound corresponding to 50% cell viability (CC50) was measured.

[7] = tested on: human aortic endothelial cell (HAEC); test: VEGF-induced proliferation assay, HAEC (PrxII siRNA); type: cell-based; conditions: for Degree of HAEC proliferation: VEGF-A 25 ng/mL, percent of untreated control
Experimental: (§2) HAECs and PAECs were transfected with a PrxII-specific siRNA using RNAi MAX transfection reagent according to manufacturer's protocol. After 24 hours, transfected cells (3,000 cells/well) were seeded in a 96-well culture plate. At 12 h after seeding, cells were serum-starved for additional 18 h in EBM basal medium containing 0.5% FBS. Test compounds were serially diluted with the same basal medium containing 0.5% FBS, added to the cells ([…]), and incubated for 2 h. After treatment, cells were placed in fresh EBM medium containing 0.5% FBS and VEGF-A (25 ng/mL) for growth factor stimulation and further cultured for 24 h.
(§3) The degree of cell proliferation was measured using the Cell Titer-GLO kit ([…]). Data are the percent of luminescence intensity averaged from three replicate wells versus that of untreated control group.
In human aortic endothelial cell (HAEC) and human pulmonary artery endothelial cell (PAEC) in which PrxII was knocked out by transfecting the PrxII siRNA, the ability of test compounds to augment the VEGF-induced proliferation of vascular endothelial cells was evaluated. In Table 7, the degree of proliferation in the compound-treated groups is expressed as percent of the degree of proliferation in untreated control group. The effective concentrations of test compounds increasing cell proliferation by 50% (EC50) is also listed.

[8] = tested on: human pulmonary artery smooth muscle cell (PASMC); test: PDGF-induced proliferation assay, PASMC (PrxII siRNA); type: cell-based; conditions: for Degree of PASMC proliferation: PDGF-BB 25 ng/mL, percent of untreated control
Experimental: as §2, with “HASMCs” for “HAECs”, “PASMCs” for “PAECs”, “SmBM” for “EBM”, “PDGF-BB” for “VEGF-A”
as §3
(§4) In human aortic smooth muscle cell (HASMC) and human pulmonary artery smooth muscle cell (PASMC) in which PrxII was knocked out by transfecting the PrxII siRNA, the ability of test compounds to inhibit the PDGF-induced proliferation of vascular smooth muscle cells was evaluated. In Table 6, the degree of proliferation in the compound-treated groups is expressed as percent of the degree of proliferation in untreated control group. The concentrations of test compounds corresponding to 50% growth inhibition (IC50) is also listed.

[9] = tested on: human aortic smooth muscle cell (HASMC); test: PDGF-induced proliferation assay, HASMC (PrxII siRNA); type: cell-based; conditions: for Degree of HASMC proliferation: PDGF-BB 25 ng/mL, percent of untreated control
Experimental: as §2, with “HASMCs” for “HAECs”, “PASMCs” for “PAECs”, “SmBM” for “EBM”, “PDGF-BB” for “VEGF-A”
as §3, §4

SMILES	EC50 (NIH-3T3 cells) [nM]	CC50 (in vitro [1]) [nM]	Peroxidase activity for H2O2 reduction [2] [nmol/min]	Midpoint redox potential (E m) [3] [mV]	Effect on phosphorylation of Tyr 1175 on VEGFR2 [4]	Effect on phosphorylation of Tyr 857 on PDGFR [5]	CC50 (in vitro [6]) [nM]	further results
C=CCN1C(=O)C2SSC1C(=O)N2CC=C [Control compound (A5), reference compound]	15.2	62300	4.25	–	–	–	–	–
CN1C(=O)C2CSSC1(C)C(=O)N2Cc1ccccc1 (centres unmarked) [Compound 2, 6-benzyl-1,8-dimethyl-2,3-dithia-6,8-diazabicyclo[3.2.2]nonane-7,9-dione]	6.47	> 500000	5.05	−293.19	strongly abolish the phosphorylation	strongly abolish the phosphorylation	–	–
CN1C(=O)C2CSSC1(C)C(=O)N2Cc1cnn(C)c1 (centres unmarked) [Compound 13, 1,8-dimethyl-6-((1-methyl-1H-pyrazol-4-yl)methyl)-2,3-dithia-6,8-diazabicyclo[3.2.2]nonane-7,9-dione]	–	> 500000	4.78	–	–	–	> 500000	–
CN1C(=O)C2CSSC1(C)C(=O)N2Cc1ccccn1 (centres unmarked) [Compound 6, 1,8-dimethyl-6-(pyridin-2-ylmethyl)-2,3-dithia-6,8-diazabicyclo[3.2.2]nonan-7,9-dione]	5.99	341000	4.57	−290.39	strongly abolish the phosphorylation	strongly abolish the phosphorylation	–	–
CCN1C(=O)C23COCCN2C(=O)C1CSS3 (centres unmarked) [Compound 10, 12-ethyltetrahydro-5H,10H-4,10a-(epiminomethano)[1,4]oxazino[3,4-c][1,2,4]dithiaze pine-5,11-dione]	–	–	5.06	−268.53	strongly abolish the phosphorylation	strongly abolish the phosphorylation	–	Degree of HAEC proliferation ([7]; 2.5 nM): 111.6%; Degree of HAEC proliferation ([7]; 5 nM): 122.8%; Degree of HAEC proliferation ([7]; 10 nM): 127.6%; Degree of HAEC proliferation ([7]; 25 nM): 140.7%; Degree of HAEC proliferation ([7]; 50 nM): 175.1%; Degree of HAEC proliferation ([7]; 100 nM): 159.0%; EC50 ([7]; Homo sapiens, Endothelial cell, effective concentration increasing cell proliferation by 50%, VEGF-stimulated): 19.3 nM; Degree of PASMC proliferation ([8]; 2.5 nM): 90.5%; Degree of PASMC proliferation ([8]; 5 nM): 54.1%; Degree of PASMC proliferation ([8]; 10 nM): 44.1%; Degree of PASMC proliferation ([8]; 25 nM): 21.9%; Degree of PASMC proliferation ([8]; 50 nM): 17.5%; Degree of PASMC proliferation ([8]; 100 nM): 7.0%; IC50 ([8]; Homo sapiens, PASMC, 50% growth inhibition, PDGF-stimulated): 8.28 nM; Degree of HASMC proliferation ([9]; 2.5 nM): 75.5%; Degree of HASMC proliferation ([9]; 5 nM): 53.8%; Degree of HASMC proliferation ([9]; 10 nM): 31.1%; Degree of HASMC proliferation ([9]; 25 nM): 4.6%; IC50 ([9]; Homo sapiens, HASMC, 50% growth inhibition, PDGF-stimulated): 5.48 nM
Cc1cccc(CN2C(=O)C3(C)SSCC2C(=O)N3C)n1 (centres unmarked) [Compound 12, 1,8-dimethyl-6-((6-methylpyridin-2-yl)methyl)-2,3-dithia-6,8-diazabicyclo[3.2.2]nonane-7,9-dione]	–	> 500000	4.94	–	–	–	> 500000	–
